# Measurements taken from publication PMC7759869 (Biomedicines, 2020).
# What was measured:
# FMO3 = biological target: T1, FMO3 (Homo sapiens, UniProt P31513); assay: Oxidation of cabozantinib by recombinant FMO3; format: in vitro ADME; conditions: human recombinant enzyme, data not shown
# T1 construct: purchased Gentest Corp., Woburn, MA, USA; host or cells: insect cells (baculovirus)
# T1 sequence (P31513 1-532): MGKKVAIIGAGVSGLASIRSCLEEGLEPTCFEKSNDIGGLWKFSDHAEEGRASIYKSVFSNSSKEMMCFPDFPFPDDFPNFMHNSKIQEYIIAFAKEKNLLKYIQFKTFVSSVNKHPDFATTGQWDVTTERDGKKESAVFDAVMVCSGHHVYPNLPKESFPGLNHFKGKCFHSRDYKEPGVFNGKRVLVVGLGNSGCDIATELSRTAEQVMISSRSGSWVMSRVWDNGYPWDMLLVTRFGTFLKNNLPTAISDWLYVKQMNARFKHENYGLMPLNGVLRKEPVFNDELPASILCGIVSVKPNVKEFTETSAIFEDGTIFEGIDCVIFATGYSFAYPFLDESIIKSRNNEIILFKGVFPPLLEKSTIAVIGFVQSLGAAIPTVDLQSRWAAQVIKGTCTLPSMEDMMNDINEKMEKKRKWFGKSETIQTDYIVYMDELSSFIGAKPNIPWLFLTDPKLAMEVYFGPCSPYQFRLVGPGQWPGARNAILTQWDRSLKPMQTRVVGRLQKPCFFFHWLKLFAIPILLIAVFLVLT
# FMO1 = biological target: T2, FMO1 (Homo sapiens, UniProt Q01740); assay: Oxidation of cabozantinib by recombinant FMO1; format: in vitro ADME; conditions: human recombinant enzyme, data not shown
# T2 construct: purchased Gentest Corp., Woburn, MA, USA; host or cells: insect cells (baculovirus)
# T2 sequence (Q01740 1-532): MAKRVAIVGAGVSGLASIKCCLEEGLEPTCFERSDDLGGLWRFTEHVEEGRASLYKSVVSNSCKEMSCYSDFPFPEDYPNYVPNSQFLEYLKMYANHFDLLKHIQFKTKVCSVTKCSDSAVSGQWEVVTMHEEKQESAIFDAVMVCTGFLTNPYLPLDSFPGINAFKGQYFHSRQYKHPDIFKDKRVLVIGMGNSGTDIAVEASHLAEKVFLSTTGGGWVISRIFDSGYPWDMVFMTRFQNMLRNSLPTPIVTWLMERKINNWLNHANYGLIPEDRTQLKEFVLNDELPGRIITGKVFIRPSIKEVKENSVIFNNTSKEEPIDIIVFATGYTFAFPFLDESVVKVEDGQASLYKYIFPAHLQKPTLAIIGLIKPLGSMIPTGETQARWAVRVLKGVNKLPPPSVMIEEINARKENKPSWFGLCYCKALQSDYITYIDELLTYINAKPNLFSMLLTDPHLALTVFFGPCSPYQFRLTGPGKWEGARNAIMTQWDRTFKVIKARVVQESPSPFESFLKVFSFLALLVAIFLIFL
# From the text: The purity of all chemicals met the standards of American Chemical Society, unless otherwise noted. […] Microsomes from livers of twelve human donors were obtained from Gentest Corp. (Woburn, MA, USA) (Lot. no. HG43-1, HG103, HG74, HG93, HG24, HG27, HG23, HG32, HK31, HK34, HG03 and HG42). […] Human recombinant enzymes were used in the forms of Supersomes™ and obtained from Corning (Corning, NY, USA). In Supersomes™, microsomal fractions were isolated from insect cells that were transfected with baculovirus constructs containing cDNA of human CYP enzymes (CYP1A1/2, 1B1, 2A6, 2B6, 2C8/9/18/19/, 2D6, 2E1, 3A4). The Supersomes™ also express NADPH:CYP oxidoreductase (POR). However, because they are microsomes (particles of broken endoplasmic reticulum), other enzymes (proteins) of the endoplasmic reticulum membrane (like NADH:cytochrome b5 reductase and cytochrome b5) are also expressed at basal levels in these Supersomes™. We also utilized Supersomes™, which overexpressed cytochrome b5, in a molar ratio of CYP to cytochrome b5 of 1 to 5. In Supersomes™, where cytochrome b5 was not overexpressed (see above), pure cytochrome b5 was added to reach a molar ratio of CYP to cytochrome b5 of 1 to 5. Reconstitution of Supersomes™ with purified cytochrome b5 was performed as described previously. Human recombinant FMOs and AO were also used in the forms of Supersomes™ (Gentest Corp., Woburn, MA, USA).
# VEGFR2 = conditions: read-out: IC50 for VEGFR2; estimated; cited from earlier work
# [1] = set-up: concentration or dose not given beside the values; conditions: metastatic renal cell carcinoma patients; cited from earlier work
# CYP3A4 + cyt b5 = biological target: T3, CYP3A4 + cyt b5 (Homo sapiens, UniProt P08684); assay: Cabozantinib oxidation by recombinant CYP3A4 in the presence of cyt b5 (Supersomes); format: in vitro ADME; conditions: Supersomes with cyt b5 vs without, 50 µM cabozantinib
# T3 construct: purchased Corning (Corning, NY, USA); host or cells: insect cells (baculovirus)
# T3 sequence (P08684 whole entry): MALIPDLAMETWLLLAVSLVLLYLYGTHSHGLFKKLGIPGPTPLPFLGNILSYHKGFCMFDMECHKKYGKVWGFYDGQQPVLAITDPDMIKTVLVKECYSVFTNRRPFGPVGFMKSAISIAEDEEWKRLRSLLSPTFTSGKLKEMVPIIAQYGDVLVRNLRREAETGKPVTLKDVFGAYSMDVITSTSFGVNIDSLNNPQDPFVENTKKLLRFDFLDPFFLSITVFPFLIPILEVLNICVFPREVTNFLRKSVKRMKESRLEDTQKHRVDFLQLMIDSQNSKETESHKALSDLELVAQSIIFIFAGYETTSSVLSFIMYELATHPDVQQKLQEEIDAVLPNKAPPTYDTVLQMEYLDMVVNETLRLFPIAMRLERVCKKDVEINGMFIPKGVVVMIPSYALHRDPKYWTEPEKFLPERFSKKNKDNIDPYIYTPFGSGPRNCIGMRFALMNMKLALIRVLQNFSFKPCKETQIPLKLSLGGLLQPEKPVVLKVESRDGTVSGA
# From the text: Cabozantinib was from MedChemExpress (Monmouth Junction, NJ, USA). Standard of cabozantinib N-oxide was purchased from Toronto Research Chemicals (Toronto, Canada). Ketoconazole, NADPH and other chemicals were all purchased from Merck (Darnstadt, Germany). The purity of all chemicals met the standards of American Chemical Society, unless otherwise noted. Male human hepatic microsomes (pooled sample) (sample LOT: 3043885) were from Gentest Corp. (Woburn, MA, USA). Microsomes from livers of twelve human donors were obtained from Gentest Corp. (Woburn, MA, USA) (Lot. no. HG43-1, HG103, HG74, HG93, HG24, HG27, HG23, HG32, HK31, HK34, HG03 and HG42). Each human microsomal sample was characterized for CYP, FMO, total protein contents and specific CYP activities by Gentest Corp. and reanalyzed by us by assays described in the protocols of Gentest Corp. Our data were similar to those reported by Gentest Corp. (Table 1). Human recombinant enzymes were used in the forms of Supersomes™ and obtained from Corning (Corning, NY, USA). In Supersomes™, microsomal fractions were isolated from insect cells that were transfected with baculovirus constructs containing cDNA of human CYP enzymes (CYP1A1/2, 1B1, 2A6, 2B6, 2C8/9/18/19/, 2D6, 2E1, 3A4). The Supersomes™ also express NADPH:CYP oxidoreductase (POR). However, because they are microsomes (particles of broken endoplasmic reticulum), other enzymes (proteins) of the endoplasmic reticulum membrane (like NADH:cytochrome b5 reductase and cytochrome b5) are also expressed at basal levels in these Supersomes™. We also utilized Supersomes™, which overexpressed cytochrome b5, in a molar ratio of CYP to cytochrome b5 of 1 to 5. In Supersomes™, where cytochrome b5 was not overexpressed (see above), pure cytochrome b5 was added to reach a molar ratio of CYP to cytochrome b5 of 1 to 5. Reconstitution of Supersomes™ with purified cytochrome b5 was performed as described previously. Human recombinant FMOs and AO were also used in the forms of Supersomes™ (Gentest Corp., Woburn, MA, USA). These microsomal fractions were isolated from insect cells that are transfected with baculovirus constructs containing cDNA of human FMO1, FMO3, FMO5 or AO enzymes.
# The reaction was initiated by adding NADPH. In control incubations, either microsomes or CYP (FMO, AO) or NADPH were omitted. […] The reaction was stopped by extraction with ethyl acetate (2 × 1 mL). […] Cabozantinib metabolites separated by HPLC were characterized by mass spectroscopy (see further details below).
structure (smiles),measurement,setting,value
"COc1cc2nccc(Oc3ccc(NC(=O)C4(C(=O)Nc5ccc(F)cc5)CC4)cc3)c2cc1OC [cabozantinib, N′1-{4-[(6,7-dimethoxyquinolin-4-yl)oxy]phenyl}-N1-(4-fluorophenyl)cyclopropane-1,1-dicarboxamide]",Oxidation of cabozantinib by FMO 3,FMO3,ineffective
same,Oxidation of cabozantinib by FMO 1,FMO1,ineffective
same,Increase of oxidation / metabolite formation by co-expression of cyt b5 with CYP3A4,CYP3A4 + cyt b5,more than 2.9 fold
